Test results reported in patent US10888542B2 (SK BIOPHARMACEUTICALS CO., LTD., priority 2014, dated 2021).

Legend:
mice = experiment: Locomotor activity test (LMA); assay type: in vivo; conditions: ip, LMA measured 30 minutes after dosing, counts for 10 minutes, percent change from control
Text: Psychostimulant activity was examined through the locomotor activity test (LMA). The LMA is a behavioral test developed to predict the efficacy of psychostimulants. The LMA is an attractive test for psychostimulants because it is sensitive and specific. All of the major classes of psychostimulants enhance ambulatory activities in the LMA, including methylphenidate, amphetamine, and many other psychostimulants.
Sixteen (16) mice (3 weeks CrjBgi:CD-1 (ICR) and 8 weeks C57BL/6) were purchased from Orient Bio Inc. (Gyeonggi-do, Korea). The mice were divided into a control group and a drug-treated group (eight (8) mice per group) by a block randomization method. Each of the group was placed in an empty cage and bred under environmental conditions of 19-25° C. with a relative humidity of 40-60% and a lighting cycle of 12 hr light/12 hr dark. Diet and water were supplied ad libitum. After one week of acclimation, the LMA test was carried out. The mice were habituated for over 1 hour in an LMA room before starting the LMA test. After habituation, the test compounds (10 or 30 mg/kg) were administered to the drug-treated group by intraperitoneal injection. At 30 minutes after i.p. dosing, LMA was measured using automated photobeams, Opto-Varimax® (Columbus Instruments, Ohio, US) and recorded on a computer. The total locomoter counts for each mouse were recorded for 10 minutes.
Statistical mean values for control and drug-treated groups were calculated and the percent changes from control were determined.

dopamine transporter = biological target: T1, dopamine transporter (Rattus norvegicus, UniProt P23977); experiment: Dopamine transporter binding assay ([3H]GBR12935, rat striatal membranes); conditions: 10 μM test compound, radioligand [3H]GBR12935 1.0 nM, 25° C., 45 minutes
T1 construct: The receptor source was rat striatal membranes; from tissue; host or cells: striatum of male SD rats (Orient Korea), membrane preparation
T1 sequence (P23977 whole entry): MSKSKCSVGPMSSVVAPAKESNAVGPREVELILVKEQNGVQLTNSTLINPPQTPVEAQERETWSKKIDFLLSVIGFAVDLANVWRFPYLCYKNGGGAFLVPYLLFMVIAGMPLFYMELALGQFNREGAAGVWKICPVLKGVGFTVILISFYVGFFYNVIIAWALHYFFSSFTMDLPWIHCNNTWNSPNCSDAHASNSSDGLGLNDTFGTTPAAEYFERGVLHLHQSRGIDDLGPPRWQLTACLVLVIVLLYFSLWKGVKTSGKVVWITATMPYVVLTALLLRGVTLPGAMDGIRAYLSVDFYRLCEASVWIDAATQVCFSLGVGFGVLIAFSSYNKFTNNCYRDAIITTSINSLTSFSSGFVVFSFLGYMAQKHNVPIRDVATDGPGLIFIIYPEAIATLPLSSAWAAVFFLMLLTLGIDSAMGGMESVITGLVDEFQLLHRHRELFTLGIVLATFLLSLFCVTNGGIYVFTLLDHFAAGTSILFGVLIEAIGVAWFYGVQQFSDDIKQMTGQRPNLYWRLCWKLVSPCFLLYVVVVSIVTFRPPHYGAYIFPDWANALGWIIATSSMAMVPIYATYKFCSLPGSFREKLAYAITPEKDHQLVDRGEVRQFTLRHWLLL
Experimental: Rats (SD-rat, Orient Korea, male, 200-250 g) were sacrificed by decapitation. The striata were removed immediately and then stored at −80° C. until used. On the day of the manipulation, the striata were thawed and suspended in 20 volumes of buffer containing 50 mM Tris-HCl and 120 mM NaCl (pH 7.7). The suspension then was centrifuged at 17,700 rpm for 20 minutes. The pellet was resuspended in 20 volumes of the buffer and centrifuged at 17,700 rpm for 20 minutes. This procedure was repeated once more. The pellet obtained was resuspended in a few ml of the buffer and then homogenized. The concentration of the receptor source was determined by Lowry et al., 1951, J. Biol. Chem. 193:265-275.
Dopamine Transporter Assay Protocol
The dopamine reuptake transporter binding assay was performed according to the methods described in Madras et al., 1989, Mol. Pharmacol. 36(4):518-524, and Javitch et al., 1984, Mol. Pharmacol. 26(1):35-44. The receptor source was rat striatal membranes; the radioligand was GBR12935 [prolyene-2,3-^3H] […]

| Structure (SMILES) | % ambulation (mice; 30 mg/kg) | inhibition at 10 µM (dopamine transporter) [%] | % ambulation (mice; 10 mg/kg) |
| --- | --- | --- | --- |
| Cl.NC(=O)NC(=O)OC[C@H](N)Cc1ccccc1 [Example 2, (2R)-2-Amino-3-phenylpropyl (aminocarbonyl)carbamate] | 118.7% (30 mg/kg, ip) | 50.1 | – |
| CC(C)N[C@@H](COC(=O)NC(N)=O)Cc1ccccc1.Cl [Example 3, (2R)-2-(Isopropylamino)-3-phenylpropyl (aminocarbonyl)carbamate] | 291.5% (30 mg/kg, ip) | 40.1 | – |
| CN(C)[C@@H](COC(=O)NC(N)=O)Cc1ccccc1.Cl [Example 4, (2R)-2-(Dimethylamino)-3-phenylpropyl (aminocarbonyl)carbamate] | 242.6% (30 mg/kg, ip) | 38.4 | – |
| NC(=O)NC(=O)OC[C@H](N)Cc1ccc(Cl)cc1Cl [Example 6, (2R)-2-Amino-3-(2,4-dichlorophenyl)propyl (aminocarbonyl)carbamate] | – | 20.4 | – |
| NC(=O)NC(=O)OC[C@H](N)Cc1ccc(Cl)c(Cl)c1 [Example 7, (2R)-2-Amino-3-(3,4-dichlorophenyl)propyl (aminocarbonyl)carbamate] | – | 41.2 | – |
| CN(C(N)=O)C(=O)OC[C@H](N)Cc1ccccc1 [Example 8] | 186.4% (30 mg/kg, ip) | 20.3 | – |
| NC(=O)NC(=O)OCC(N)Cc1ccc(Cl)cc1 (stereo not shown) [Example 9] | – | 42.8 | – |
| CN[C@@H](COC(=O)NC(N)=O)Cc1ccccc1 [Example 14] | – | 35.9 | – |
| CN(C(N)=O)C(=O)OC[C@@H](Cc1ccccc1)N(C)C [Example 15] | – | 55.5 | 202.2% (10 mg/kg, ip) |
| NC(=O)N(Cc1ccccc1)C(=O)OC[C@H](N)Cc1ccccc1 [Example 16, (2R)-2-Amino-3-phenylpropyl (aminocarbonyl)benzylcarbamate] | – | 20.8 | – |
| CCN(C(N)=O)C(=O)OC[C@H](N)Cc1ccccc1 [Example 17, (2R)-2-Amino-3-phenylpropyl(aminocarbonyl)ethylcarbamate] | – | 41.2 | – |
| CN(C(N)=O)C(=O)OC[C@H](N)Cc1ccccc1Cl [Example 18] | – | 17.5 | – |
| CN(C(N)=O)C(=O)OC[C@H](N)Cc1ccc(F)cc1 [Example 19, 2-Amino-3-(4-fluorophenyl)propyl(aminocarbonyl)methylcarbamate] | – | 34.3 | – |
| CN(C(N)=O)C(=O)OC[C@H](N)Cc1ccc(Cl)cc1Cl [Example 21, (2R)-2-amino-3-(2,4-dichlorophenyl)propyl (aminocarbonyl) Methylcarbamate] | – | 31.5 | – |
| CN(C(N)=O)C(=O)OC[C@H](N)Cc1ccc(Cl)c(Cl)c1 [Example 22, (2R)-2-Amino-3-(3,4-dichlorophenyl)propyl (aminocarbonyl) Methylcarbamate] | – | 37 | – |
| CN(C(N)=O)C(=O)OCC(N)Cc1ccccc1 (stereo not shown) [Example 24] | – | 45 | – |
| N[C@@H](COC(=O)NC(=O)Nc1ccccc1)Cc1ccccc1 [Example 29, (2R)-2-Amino-3-phenylpropyl (anilinocarbonyl)carbamate] | – | 50.7 | – |
